Values joined by “and” are separate entries in the source; they are usually repeats but may differ in a detail not shown here. Equal entries are not always repeated. Toxic doses and inconclusive results are not listed. How the source made its calls: active means survival T/C of 150% or more; inactive means T/C below 125% in these data.
System: CD2F1 mice, L1210 leukemia ip, survival T/C
Experiment: NCI In Vivo Anticancer Drug Screen. Data for tumor model L1210 Leukemia (intraperitoneal) in CD2F1 (CDF1) mice
Conditions: higher = longer survival
Summary of the method: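 Vehicle-treated tumor-bearing mice served as controls (C) for compound-treated mice (T). Reported figure is T divided by C.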

[1] = endpoint: mean survival time, dose: 12.5 mg/kg/injection, schedule: Q01DX009 (ip), vehicle: saline with Tween-80
[2] = endpoint: mean survival time, dose: 25.0 mg/kg/injection, schedule: Q01DX009 (ip), vehicle: saline with Tween-80
[3] = endpoint: mean survival time, dose: 100.0 mg/kg/injection, schedule: Q01DX009 (ip), vehicle: other
[4] = endpoint: mean survival time, dose: 200.0 mg/kg/injection, schedule: Q01DX009 (ip), vehicle: other
[5] = endpoint: mean survival time, dose: 100.0 mg/kg/injection, schedule: Q01DX009 (ip), vehicle: saline with Tween-80
[6] = endpoint: mean survival time, dose: 200.0 mg/kg/injection, schedule: Q01DX009 (ip), vehicle: saline with Tween-80
[7] = endpoint: mean survival time, dose: 6.25 mg/kg/injection, schedule: Q04DX003 (ip), vehicle: saline with Tween-80
[8] = endpoint: mean survival time, dose: 12.5 mg/kg/injection, schedule: Q04DX003 (ip), vehicle: saline with Tween-80
[9] = endpoint: mean survival time, dose: 25.0 mg/kg/injection, schedule: Q04DX003 (ip), vehicle: saline with Tween-80
[10] = endpoint: mean survival time, dose: 50.0 mg/kg/injection, schedule: Q01DX009 (ip), vehicle: saline with Tween-80

Measured: T/C

O=C1C2CC=CCC2C(=O)N1SC(Cl)(Cl)Cl (configuration not stated)
inactive: endpoint: mean survival time, dose: 0.78 mg/kg/injection, schedule: Q01DX009 (ip), vehicle: saline with Tween-80 97 % of control | endpoint: mean survival time, dose: 1.56 mg/kg/injection, schedule: Q01DX009 (ip), vehicle: saline with Tween-80 97 % of control | endpoint: mean survival time, dose: 3.12 mg/kg/injection, schedule: Q01DX009 (ip), vehicle: saline with Tween-80 97 % of control | endpoint: mean survival time, dose: 6.25 mg/kg/injection, schedule: Q01DX009 (ip), vehicle: saline with Tween-80 93 % of control | [1] 101 % of control | [2] 89 % of control

CC(C)(CC(=O)O)Cc1ccc([N+](=O)[O-])cc1
inactive: endpoint: mean survival time, dose: 100.0 mg/kg/injection, schedule: Q04DX003 (ip), vehicle: saline with Tween-80 102 % of control | endpoint: mean survival time, dose: 200.0 mg/kg/injection, schedule: Q04DX003 (ip), vehicle: saline with Tween-80 98 % of control | endpoint: mean survival time, dose: 400.0 mg/kg/injection, schedule: Q04DX003 (ip), vehicle: saline with Tween-80 102 % of control

CC(=O)OCC1OC(OC(C)=O)C(NC(=O)NCCI)C(OC(C)=O)C1OC(C)=O (configuration not stated)
inactive: endpoint: mean survival time, dose: 12.5 mg/kg/injection, schedule: Q01DX009 (ip), vehicle: other 93 % of control | endpoint: mean survival time, dose: 25.0 mg/kg/injection, schedule: Q01DX009 (ip), vehicle: other 95 % of control | endpoint: mean survival time, dose: 50.0 mg/kg/injection, schedule: Q01DX009 (ip), vehicle: other 92 % of control | [3] 88 % of control | [4] 98 % of control

COC(=O)C(NC(=O)C(C)NC(=O)OCc1ccccc1)C(C)C (configuration not stated)
inactive: [5] 97 % of control | [6] 93 % of control | endpoint: mean survival time, dose: 400.0 mg/kg/injection, schedule: Q01DX009 (ip), vehicle: saline with Tween-80 98 % of control

Nc1ncnc2c1c1c(=O)[nH]cnc1n2C1OC(CO)C(O)C1O (configuration not stated)
inactive: endpoint: mean survival time, dose: 6.25 mg/kg/injection, schedule: Q01DX005 (ip), vehicle: Klucel (hydroxypropylcellulose) (HPC) 98 % of control | endpoint: mean survival time, dose: 12.5 mg/kg/injection, schedule: Q01DX005 (ip), vehicle: Klucel (hydroxypropylcellulose) (HPC) 104 % of control | endpoint: mean survival time, dose: 25.0 mg/kg/injection, schedule: Q01DX005 (ip), vehicle: Klucel (hydroxypropylcellulose) (HPC) 108 % of control | endpoint: mean survival time, dose: 50.0 mg/kg/injection, schedule: Q01DX005 (ip), vehicle: Klucel (hydroxypropylcellulose) (HPC) 115 % of control | endpoint: mean survival time, dose: 100.0 mg/kg/injection, schedule: Q01DX005 (ip), vehicle: Klucel (hydroxypropylcellulose) (HPC) 120 % of control

CNCCNC1=C(Cl)C(=O)c2ccccc2C1=O
inactive: [7] 101 % of control | [8] 101 % of control | [9] 96 % of control and 102 % of control

Cc1cc(F)ccc1[As](=O)(O)O
inactive: [7] 103 % of control | [8] 95 % of control | [9] 97 % of control

Cc1nc2c(c[n+]1C)CN1C=Nc3c(ncn3C3OC(CO)C(O)C3O)C1=N2 (configuration not stated)
inactive: endpoint: median survival time, dose: 12.5 mg/kg/injection, schedule: Q01DX005 (ip), vehicle: saline 98 % of control | endpoint: median survival time, dose: 25.0 mg/kg/injection, schedule: Q01DX005 (ip), vehicle: saline 100 % of control | endpoint: median survival time, dose: 50.0 mg/kg/injection, schedule: Q01DX005 (ip), vehicle: saline 100 % of control | endpoint: median survival time, dose: 100.0 mg/kg/injection, schedule: Q01DX005 (ip), vehicle: saline 100 % of control | endpoint: median survival time, dose: 200.0 mg/kg/injection, schedule: Q01DX005 (ip), vehicle: saline 100 % of control

CN(C)c1ccc(C(Cc2ccc(Nc3ccccc3)c3ccccc23)=C2C=CC(=[N+](C)C)C=C2)cc1
inactive: endpoint: mean survival time, dose: 3.13 mg/kg/injection, schedule: Q01DX001 (ip), vehicle: saline 96 % of control | endpoint: mean survival time, dose: 6.25 mg/kg/injection, schedule: Q01DX001 (ip), vehicle: saline 93 % of control | endpoint: mean survival time, dose: 12.5 mg/kg/injection, schedule: Q01DX001 (ip), vehicle: saline 118 % of control and 93 % of control | endpoint: mean survival time, dose: 25.0 mg/kg/injection, schedule: Q01DX001 (ip), vehicle: saline 106 % of control

CCCCCCCCCCCCCCCCOc1ccccc1CNc1cc(C(F)(F)F)ccc1Cl
inactive: [3] 89 % of control | [4] 103 % of control | endpoint: mean survival time, dose: 400.0 mg/kg/injection, schedule: Q01DX009 (ip), vehicle: other 91 % of control

[O-][n+]1c(CN2CCCCC2)nc2cccc3c2c1-c1ccccc1-3
inactive: [1] 104 % of control | [2] 103 % of control | [10] 103 % of control | [5] 113 % of control | [6] 109 % of control

COc1ccc(C2=NC(C)Cc3cc(OC)c(OC)cc32)cc1OC (configuration not stated)
inactive: endpoint: mean survival time, dose: 12.5 mg/kg/injection, schedule: Q01DX009 (ip), vehicle: water 96 % of control | endpoint: mean survival time, dose: 25.0 mg/kg/injection, schedule: Q01DX009 (ip), vehicle: water 94 % of control | endpoint: mean survival time, dose: 50.0 mg/kg/injection, schedule: Q01DX009 (ip), vehicle: water 94 % of control | endpoint: mean survival time, dose: 100.0 mg/kg/injection, schedule: Q01DX009 (ip), vehicle: water 91 % of control

CCC12C[N+]3([O-])CCc4c([nH]c5ccccc45)C(C(=O)OC)(c4cc5c(cc4OC)N(C)C4C(O)(C(=O)OC)C(OC(C)=O)C6(CC)C=CCN7CCC54C76)CC(C3)C1O2 (configuration not stated)
inactive: endpoint: median survival time, dose: 0.62 mg/kg/injection, schedule: Q01DX009 (ip), vehicle: water 98 % of control | endpoint: median survival time, dose: 1.25 mg/kg/injection, schedule: Q01DX009 (ip), vehicle: water 103 % of control | endpoint: median survival time, dose: 2.5 mg/kg/injection, schedule: Q01DX009 (ip), vehicle: water 98 % of control and 105 % of control and 107 % of control | endpoint: median survival time, dose: 5.0 mg/kg/injection, schedule: Q01DX009 (ip), vehicle: water 101 % of control and 105 % of control and 110 % of control | endpoint: median survival time, dose: 10.0 mg/kg/injection, schedule: Q01DX009 (ip), vehicle: water 115 % of control and 117 % of control | endpoint: median survival time, dose: 20.0 mg/kg/injection, schedule: Q01DX009 (ip), vehicle: water 117 % of control and 119 % of control and 112 % of control

O=C1C2C(c3ccccc3)=C(c3ccccc3)C1[C@@]1(c3ccccc3)C(c3ccccc3)=CC(=O)[C@@H]21 (some centres not stated)
inactive: endpoint: mean survival time, dose: 100.0 mg/kg/injection, schedule: Q01DX001 (ip), vehicle: saline with Tween-80 87 % of control | endpoint: mean survival time, dose: 400.0 mg/kg/injection, schedule: Q01DX001 (ip), vehicle: saline with Tween-80 89 % of control

Cc1c(N)nc(C(CC(N)=O)NCC(N)C(N)=O)nc1C(=O)NC(C(=O)NC(C)C(O)C(C)C(=O)NC(C(=O)NCCc1nc(-c2nc(C(=O)NCCCNCCCc3ccccn3)cs2)cs1)C(C)O)C(OC1OC(CO)C(O)C(O)C1OC1OC(CO)C(O)C(OC(N)=O)C1O)c1cnc[nH]1 (configuration not stated)
inactive: endpoint: mean survival time, dose: 0.2 mg/kg/injection, schedule: Q01DX009 (ip), vehicle: water 101 % of control | endpoint: mean survival time, dose: 0.4 mg/kg/injection, schedule: Q01DX009 (ip), vehicle: water 107 % of control | endpoint: mean survival time, dose: 0.8 mg/kg/injection, schedule: Q01DX009 (ip), vehicle: water 98 % of control | endpoint: mean survival time, dose: 1.6 mg/kg/injection, schedule: Q01DX009 (ip), vehicle: water 104 % of control | endpoint: mean survival time, dose: 3.2 mg/kg/injection, schedule: Q01DX009 (ip), vehicle: water 104 % of control | endpoint: mean survival time, dose: 6.25 mg/kg/injection, schedule: Q01DX009 (ip), vehicle: saline 111 % of control | endpoint: mean survival time, dose: 6.4 mg/kg/injection, schedule: Q01DX009 (ip), vehicle: water 107 % of control | endpoint: mean survival time, dose: 12.5 mg/kg/injection, schedule: Q01DX009 (ip), vehicle: saline 103 % of control | endpoint: mean survival time, dose: 25.0 mg/kg/injection, schedule: Q01DX009 (ip), vehicle: saline 108 % of control | endpoint: mean survival time, dose: 50.0 mg/kg/injection, schedule: Q01DX009 (ip), vehicle: saline 105 % of control

N#CCCOc1ccc(Cl)cc1
inactive: [10] 107 % of control | [5] 97 % of control | [6] 96 % of control

Cc1ccc(C(=O)CCl)c(C)c1
inactive: endpoint: mean survival time, dose: 25.0 mg/kg/injection, schedule: Q04DX003 (ip), vehicle: Klucel (hydroxypropylcellulose) (HPC) 102 % of control | endpoint: mean survival time, dose: 50.0 mg/kg/injection, schedule: Q04DX003 (ip), vehicle: Klucel (hydroxypropylcellulose) (HPC) 103 % of control

Reference: PubChem BioAssay AID256 (DTP/NCI, 2004)
